Reference: US20250325687A1, “CONJUGATE COMPRISING TOLL-LIKE RECEPTOR AGONIST” (MABSOFT THERAPEUTICS (SHANGHAI) CO., LTD., priority 2022, published 2025)
Where two headings read alike, the source gives them in different places.

Assays:
Assay type in all cases: cell-based
[1] = target: T1, hTLR7 (human Toll-like receptor 7) (Homo sapiens, UniProt Q9NYK1); assay: hTLR7 cell assay (HEK-Blue hTLR7 reporter cells); conditions: 24 hours, OD 650 nm
T1 construct: host or cells: HEK-Blue hTLR7 (HEK293-derived reporter cells)
T1 sequence (Q9NYK1 27-1049): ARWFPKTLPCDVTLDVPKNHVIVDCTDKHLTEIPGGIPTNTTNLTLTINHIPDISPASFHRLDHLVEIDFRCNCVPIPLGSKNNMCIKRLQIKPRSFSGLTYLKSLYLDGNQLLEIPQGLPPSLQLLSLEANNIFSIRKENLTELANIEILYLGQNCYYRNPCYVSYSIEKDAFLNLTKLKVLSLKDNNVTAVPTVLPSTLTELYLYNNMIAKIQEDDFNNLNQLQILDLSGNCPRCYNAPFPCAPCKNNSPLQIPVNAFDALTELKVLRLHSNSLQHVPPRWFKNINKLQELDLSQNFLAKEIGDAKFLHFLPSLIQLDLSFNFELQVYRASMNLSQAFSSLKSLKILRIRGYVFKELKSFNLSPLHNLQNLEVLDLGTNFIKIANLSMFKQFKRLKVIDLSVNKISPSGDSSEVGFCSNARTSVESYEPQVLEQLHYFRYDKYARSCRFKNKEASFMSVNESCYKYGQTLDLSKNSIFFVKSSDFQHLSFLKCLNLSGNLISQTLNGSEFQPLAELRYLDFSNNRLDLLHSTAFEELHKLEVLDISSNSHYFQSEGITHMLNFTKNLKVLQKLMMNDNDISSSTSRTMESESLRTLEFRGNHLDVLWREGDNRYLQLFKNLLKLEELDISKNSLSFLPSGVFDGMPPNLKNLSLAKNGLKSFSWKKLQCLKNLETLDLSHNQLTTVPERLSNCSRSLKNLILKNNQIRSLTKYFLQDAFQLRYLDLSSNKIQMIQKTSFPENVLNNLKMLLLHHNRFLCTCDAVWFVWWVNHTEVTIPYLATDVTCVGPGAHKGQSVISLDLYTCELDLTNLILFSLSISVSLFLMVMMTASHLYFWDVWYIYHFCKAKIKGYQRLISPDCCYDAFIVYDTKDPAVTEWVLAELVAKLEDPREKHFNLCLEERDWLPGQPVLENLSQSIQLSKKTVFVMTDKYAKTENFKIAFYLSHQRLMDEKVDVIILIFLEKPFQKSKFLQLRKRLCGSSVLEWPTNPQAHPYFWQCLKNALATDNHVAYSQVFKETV
Experimental: (§1) The payload compounds of Formula (II′) were assayed to evaluate their agonistic activity on hTLR7 (human Toll-like receptor 7) and hTLR8 (human Toll-like receptor 8). Reporter cells lines (HEK-Blue hTLR7 and HEK-Blue hTLR8) were obtained from InvivoGen. Cells were cryopreserved in liquid nitrogen per supplier's instruction. Upon test, the cells were thawed, passaged and cultured in the growth media of DMEM supplemented with 10% fetal bovine serum, 1×NEAA, 1 mM Pyruvate, 2 mM glutamine, […] in the presence of the following antibiotics, as shown as Table 1. Test compounds (at desired concentrations diluted) were added to the 96-well assay plate, 0.5 μL per well. Reporter cells were harvested from the tissue culture flasks by incubation in PBS at 37° C. for two minutes after the media in the flask is removed and cells rinsed with PBS. Cells were counted and diluted in the HEK-Blue Detection media at 50000 cells/mL and incubated for 24 hours at 37° C., in a 5% CO2 humidified incubator. Then 20 μL of cell supernatant were added to the assay plate containing the 180 µL of QUANTI-Blue, incubated for 1 hour at 37° C. Optical density at 650 nm was analyzed using an Envision (Perkin Elmer) plate reader.

[2] = target: T2, hTLR8 (human Toll-like receptor 8) (Homo sapiens, UniProt Q9NR97); assay: hTLR8 cell assay (HEK-Blue hTLR8 reporter cells); conditions: 24 hours, OD 650 nm
T2 construct: host or cells: HEK-Blue hTLR8 (HEK293-derived reporter cells)
T2 sequence (Q9NR97 27-1041): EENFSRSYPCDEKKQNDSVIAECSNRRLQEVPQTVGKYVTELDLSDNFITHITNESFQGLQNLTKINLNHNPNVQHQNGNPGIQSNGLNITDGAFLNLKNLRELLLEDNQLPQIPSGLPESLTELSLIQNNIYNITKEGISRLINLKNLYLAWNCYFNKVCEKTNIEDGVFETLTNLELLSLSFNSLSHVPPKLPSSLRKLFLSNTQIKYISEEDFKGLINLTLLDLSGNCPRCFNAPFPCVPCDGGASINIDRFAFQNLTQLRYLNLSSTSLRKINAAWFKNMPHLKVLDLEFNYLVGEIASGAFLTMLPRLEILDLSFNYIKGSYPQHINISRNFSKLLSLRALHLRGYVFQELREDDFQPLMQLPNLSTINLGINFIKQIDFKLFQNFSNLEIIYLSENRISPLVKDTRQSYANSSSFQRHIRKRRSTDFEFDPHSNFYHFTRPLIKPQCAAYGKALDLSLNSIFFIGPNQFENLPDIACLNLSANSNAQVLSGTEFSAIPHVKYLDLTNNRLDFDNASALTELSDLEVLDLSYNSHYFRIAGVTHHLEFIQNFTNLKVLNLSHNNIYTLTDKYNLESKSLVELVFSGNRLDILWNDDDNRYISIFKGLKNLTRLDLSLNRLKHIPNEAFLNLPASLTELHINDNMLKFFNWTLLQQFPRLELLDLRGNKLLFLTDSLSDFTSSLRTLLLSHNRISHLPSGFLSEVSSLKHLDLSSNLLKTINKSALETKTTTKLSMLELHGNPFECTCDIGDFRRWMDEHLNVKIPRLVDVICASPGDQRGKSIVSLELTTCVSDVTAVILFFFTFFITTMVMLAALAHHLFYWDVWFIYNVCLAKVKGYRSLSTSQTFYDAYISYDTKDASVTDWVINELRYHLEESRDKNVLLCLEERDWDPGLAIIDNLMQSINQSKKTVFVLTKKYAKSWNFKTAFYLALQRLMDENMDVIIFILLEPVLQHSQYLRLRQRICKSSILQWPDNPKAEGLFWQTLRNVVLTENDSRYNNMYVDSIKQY
Experimental: as §1

[3] = test system: human PBMC (human peripheral blood mononuclear cells); assay: PBMC screening assay: induction of TNF-α production; conditions: read-out: EC50 (μM) TNF-α (hPBMC)
Experimental: The payload compounds of Formula (II′) were assayed to evaluate the induction of TNF-α production in human PBMC (human peripheral blood mononuclear cells).
Human peripheral blood mononuclear cells (PBMC) were obtained from Allcells. […] PBMC were incubated for 24 hours at 37° C. in a 5% CO2 humidified incubator. The following day PBMC plates were centrifuged at 500×g for 5 minutes and the growth media was removed. 200 μL of compound prepared in growth media at a series of diluted concentrations ranging from 2.54 nM to 50 μM were added to PBMC in duplicate and incubated for 24 hours at 37° C. in a 5% CO2 incubator. Prior to supernatant harvest, cells were spun at 500×g for 5 minutes to remove cell debris. TNF-α activity was assessed in the supernatant by ELISA (Elabscience) per the manufacturer's instructions. Optical density at 450 nm (ELISA) was analyzed using a plate reader.

[4] = human PBMC, 24 hours, TNF-α by ELISA, class symbols

| SMILES | EC50 [1] [µM] | EC50 [2] [µM] | EC50 [3, 4] [µM] | EC50 ([3]; Homo sapiens, PBMC, 24 h) [µM] |
| --- | --- | --- | --- | --- |
| CCOCc1nc2c(N)nc3cc(Cc4ccc(CCN)cc4)ccc3c2n1CC(C)(C)O [Compound 2, 1-(4-amino-7-(4-(2-aminoethyl)benzyl)-2-(ethoxymethyl)-1H-imidazo[4,5-c]quinolin-1-yl)-2-methylpropan-2-ol] | 1 to 10 | 5 to 20 |  | > 0.64 |
| CCOCc1nc2c(N)nc3cc(Cc4ccc(CNC(=O)CO)s4)ccc3c2n1CC(C)(C)O [Compound 169] |  |  | > 0.64 |  |
| CCCCc1nc2c(N)nc3cc(Cc4cccc(CCN)c4)ccc3c2n1CC(C)(C)O [Compound 17, 1-(4-amino-7-(3-(2-aminoethyl)benzyl)-2-butyl-1H-imidazo[4,5-c]quinolin-1-yl)-2-methylpropan-2-ol] | < 1 | < 5 | > 0.64 |  |
| CCCCc1nc2c(N)nc3cc(Cc4ccc(CCCN)cc4)ccc3c2n1CC(C)(C)O [Compound 15, 1-(4-amino-7-(4-(3-aminopropyl)benzyl)-2-butyl-1H-imidazo[4,5-c]quinolin-1-yl)-2-methylpropan-2-ol] | 1 to 10 | < 5 | < 0.64 |  |
| CCOCc1nc2c(N)nc3cc(Cc4ccccc4)ccc3c2n1CC(C)(C)O [Compound 171, 1-(4-amino-7-benzyl-2-(ethoxymethyl)-1H-imidazo[4,5-c]quinolin-1-yl)-2-methylpropan-2-ol] |  |  | < 0.64 |  |
| CCCCc1nc2c(N)nc3cc(Cc4ccc(CCN)cc4)ccc3c2n1CC(C)(C)O [Compound 19, 1-(4-amino-7-(4-(2-aminoethyl)benzyl)-2-butyl-1H-imidazo[4,5-c]quinolin-1-yl)-2-methylpropan-2-ol] | < 1 | < 5 |  | < 0.64 |
| CCOCc1nc2c(N)nc3cc(Cc4ccccc4)ccc3c2n1CC(C)(C)OCCN [Compound 23, 1-(2-(2-aminoethoxy)-2-methylpropyl)-7-benzyl-2-(ethoxymethyl)-1H-imidazo[4,5-c]quinolin-4-amine] | 1 to 10 | < 5 | > 0.64 |  |
| CCCCc1nc2c(N)nc3cc(Cc4cccc(CN)c4)ccc3c2n1CC(C)(C)O [Compound 16, 1-(4-amino-7-(3-(aminomethyl)benzyl)-2-butyl-1H-imidazo[4,5-c]quinolin-1-yl)-2-methylpropan-2-ol] | < 1 | < 5 | < 0.64 |  |
| CCC[C@@H](C)c1nc2c(N)nc3cc(Cc4ccccc4)ccc3c2n1CC(C)(C)OCCN [Compound 30, (R)-1-(2-(2-aminoethoxy)-2-methylpropyl)-7-benzyl-2-(pentan-2-yl)-1H-imidazo[4,5-c]quinolin-4-amine] | 1 to 10 | < 5 | > 0.64 |  |

Second part, led by results:

| EC50 [1] [µM] | EC50 [2] [µM] | SMILES | EC50 [3, 4] [µM] | EC50 ([3]; Homo sapiens, PBMC, 24 h) [µM] |
| --- | --- | --- | --- | --- |
| 1 to 10 | < 5 | CCCCc1nc2c(N)nc3cc(Cc4ccccc4CN)ccc3c2n1CC(C)(C)O [Compound 71, 1-(4-amino-7-(2-(aminomethyl)benzyl)-2-butyl-1H-imidazo[4,5-c]quinolin-1-yl)-2-methylpropan-2-ol] | > 0.64 |  |
| < 1 | < 5 | CCOCc1nc2c(N)nc3cc(Cc4cccc(N5CCNCC5)c4)ccc3c2n1CC(C)(C)O [Compound 153, 1-(4-amino-2-(ethoxymethyl)-7-(3-(piperazin-1-yl)benzyl)-1H-imidazo[4,5-c]quinolin-1-yl)-2-methylpropan-2-ol] | < 0.64 |  |
| < 1 | < 5 | CC(C)(O)Cn1c(COC2CC2)nc2c(N)nc3cc(Cc4cccc(CN)c4)ccc3c21 [Compound 55, 1-(4-amino-7-(3-(aminomethyl)benzyl)-2-(cyclopropoxymethyl)-1H-imidazo[4,5-c]quinolin-1-yl)-2-methylpropan-2-ol] | < 0.64 |  |
| < 1 | < 5 | CCCCc1nc2c(N)nc3cc(C(C)c4cccc(CN)c4)ccc3c2n1CC(C)(C)O (centres unmarked) [Compound 56, 1-(4-amino-7-(1-(3-(aminomethyl)phenyl)ethyl)-2-butyl-1H-imidazo[4,5-c]quinolin-1-yl)-2-methylpropan-2-ol] | < 0.64 |  |
| < 1 | < 5 | CCOCc1nc2c(N)nc3cc(Cc4ccc(CN)s4)ccc3c2n1CC(C)(C)O [Compound 147, 1-(4-amino-7-((5-(aminomethyl)thiophen-2-yl)methyl)-2-(ethoxymethyl)-1H-imidazo[4,5-c]quinolin-1-yl)-2-methylpropan-2-ol] | < 0.64 |  |
| < 1 | < 5 | CCOCc1nc2c(N)nc3cc(Cc4ccc(F)c(CN)c4)ccc3c2n1CC(C)(C)O [Compound 149] | < 0.64 |  |
| < 1 | < 5 | CCOCc1nc2c(N)nc3cc(Cc4cc(CN)ccc4F)ccc3c2n1CC(C)(C)O [Compound 148, 1-(4-amino-7-(5-(aminomethyl)-2-fluorobenzyl)-2-(ethoxymethyl)-1H-imidazo[4,5-c]quinolin-1-yl)-2-methylpropan-2-ol] | < 0.64 |  |
| < 1 | < 5 | CC(C)(O)Cn1c(CCCC(F)(F)F)nc2c(N)nc3cc(Cc4cccc(CN)c4)ccc3c21 [Compound 51, 1-(4-amino-7-(3-(aminomethyl)benzyl)-2-(4,4,4-trifluorobutyl)-1H-imidazo[4,5-c]quinolin-1-yl)-2-methylpropan-2-ol] | > 0.64 |  |
